{"source": "patent EP0259838A2", "about": "“Pharmaceutical composition containing A 1,4-dihydropyridine derivative and an acylated 1,2,3,4-tetrahydroisoquinoline-3-carboxylic acid” (priority 1986, dated 1988)", "key": {"Renal Hypertensive Rats": {"tested_on": "Renal Hypertensive Rats", "test": "Antihypertensive activity in renal hypertensive rats (tail-cuff systolic blood pressure and heart rate)", "assay_type": "in vivo, rats (Male Sprague-Dawley)", "conditions": "single dose po, nicardipine 3 mg/kg, ACE inhibitor 10 mg/kg, combination 3 + 10 mg/kg, n = 6", "description": "Twenty-four renal hypertensive rates (Male Sprague-Dawley, 140-170g) showing systolic blood pressure of 160 mmHg or greater were chosen for the study. Using the random block design, they were distributed into four groups: 3 groups for compound treatments and one for vehicle control. They were randomly assigned to the treatments. The test compounds were dissolved in deionized water at concentrations such that 1.0 ml of solution was administered per 100 grams of body weight.\nAt approximately 17 hours prior to dosing, food was removed from the rat cages. On the morning of testing, the rats were dosed with the assigned compound or vehicle by gavage. Immediately after dosing, the rats were put in restrainers and placed in a heated chamber, 30 degrees centrigrade, for four hours. After the four hour reading, the rats were returned to their home cage for 3 hours and then were put in the restrainer again for the hour 8 reading.\nUsing a tail blood pressure cuff, blood pressure curves and tail pulses were simultaneously monitored on a 4-channel MFE recorder digitized by a computer system. At least four consecutive traces (at 30 second intervals) were recorded for each rat at 1, 2, 4 and 8 hour post-dose.\nThe computer system has been programmed to find systolic blood pressure (mmHg) and heart rate (beats/min) for each recording and them calculate the mean SBP and the mean HR of each rat at each observation time. Manual editing and confirmation of the analyses were carried out by the investigator on any systolic blood pressure traces that were more than two standard deviations outside the mean blood pressure readings for that animal at a given time period.\nThe SBP's of the animals in each dose group were compared to the SBP's of the animals in the control group at each observation time using oneway analysis of variance. Significance was determined using the Dunnet test."}, "CD rats": {"tested_on": "CD rats", "conditions": "rat, in vivo; cited from earlier work"}}, "data": [{"smiles": "CCOC(=O)[C@H](CCc1ccccc1)N[C@@H](C)C(=O)N1Cc2cc(OC)c(OC)cc2C[C@H]1C(=O)O", "note": "[2-{2-[(1-ethoxycarbonyl)-3-phenylpropyl]amino}-1-oxopropyl-1,2,3,4-tetrahydro-6,7-dimethoxy-3-isoquinoline carboxylic acid]", "values": [{"measurement": "HR % Chg (Chg from Control)", "setting": "Renal Hypertensive Rats; 1 Hr post-dose", "value": 29, "unit": "%"}, {"measurement": "HR b/min. Chg (Chg from Control)", "setting": "Renal Hypertensive Rats; 1 Hr post-dose", "value": 87, "unit": "b/min."}, {"measurement": "SBP % Chg (Chg from Control)", "setting": "Renal Hypertensive Rats; 1 Hr post-dose", "value": -8, "unit": "%"}, {"measurement": "SBP mmHg Chg (Chg from Control)", "setting": "Renal Hypertensive Rats; 1 Hr post-dose", "value": -14, "unit": "mmHg"}, {"measurement": "HR % Chg (Chg from Control)", "setting": "Renal Hypertensive Rats; 2 Hr post-dose", "value": 4, "unit": "%"}, {"measurement": "HR b/min. Chg (Chg from Control)", "setting": "Renal Hypertensive Rats; 2 Hr post-dose", "value": 11, "unit": "b/min."}, {"measurement": "SBP % Chg (Chg from Control)", "setting": "Renal Hypertensive Rats; 2 Hr post-dose", "value": -7, "unit": "%"}, {"measurement": "SBP mmHg Chg (Chg from Control)", "setting": "Renal Hypertensive Rats; 2 Hr post-dose", "value": -13, "unit": "mmHg"}, {"measurement": "HR % Chg (Chg from Control)", "setting": "Renal Hypertensive Rats; 4 Hr post-dose", "value": 4, "unit": "%"}, {"measurement": "HR b/min. Chg (Chg from Control)", "setting": "Renal Hypertensive Rats; 4 Hr post-dose", "value": 10, "unit": "b/min."}, {"measurement": "SBP % Chg (Chg from Control)", "setting": "Renal Hypertensive Rats; 4 Hr post-dose", "value": 3, "unit": "%"}, {"measurement": "SBP mmHg Chg (Chg from Control)", "setting": "Renal Hypertensive Rats; 4 Hr post-dose", "value": 4, "unit": "mmHg"}, {"measurement": "HR % Chg (Chg from Control)", "setting": "Renal Hypertensive Rats; 8 Hr post-dose", "value": -11, "unit": "%"}, {"measurement": "HR b/min. Chg (Chg from Control)", "setting": "Renal Hypertensive Rats; 8 Hr post-dose", "value": -33, "unit": "b/min."}, {"measurement": "SBP % Chg (Chg from Control)", "setting": "Renal Hypertensive Rats; 8 Hr post-dose", "value": -7, "unit": "%"}, {"measurement": "SBP mmHg Chg (Chg from Control)", "setting": "Renal Hypertensive Rats; 8 Hr post-dose", "value": -12, "unit": "mmHg"}]}, {"smiles": "COC(=O)C1=C(C)NC(C)=C(C(=O)OCCN(C)Cc2ccccc2)C1c1cccc([N+](=O)[O-])c1", "note": "(stereo not drawn) [nicardipine, 2,6-dimethyl-4-(3ʹ-nitrophenyl)-1,4-dihydropyridine-3,5-dicarboxylic acid-3-methyl ester-5-β-(N-benzyl-N-methylamino)-ethyl ester]", "values": [{"measurement": "HR % Chg (Chg from Control)", "setting": "Renal Hypertensive Rats; 1 Hr post-dose", "value": 22, "unit": "%"}, {"measurement": "HR b/min. Chg (Chg from Control)", "setting": "Renal Hypertensive Rats; 1 Hr post-dose", "value": 65, "unit": "b/min."}, {"measurement": "SBP % Chg (Chg from Control)", "setting": "Renal Hypertensive Rats; 1 Hr post-dose", "value": -3, "unit": "%"}, {"measurement": "SBP mmHg Chg (Chg from Control)", "setting": "Renal Hypertensive Rats; 1 Hr post-dose", "value": -5, "unit": "mmHg"}, {"measurement": "HR % Chg (Chg from Control)", "setting": "Renal Hypertensive Rats; 2 Hr post-dose", "value": 10, "unit": "%"}, {"measurement": "HR b/min. Chg (Chg from Control)", "setting": "Renal Hypertensive Rats; 2 Hr post-dose", "value": 30, "unit": "b/min."}, {"measurement": "SBP % Chg (Chg from Control)", "setting": "Renal Hypertensive Rats; 2 Hr post-dose", "value": -4, "unit": "%"}, {"measurement": "SBP mmHg Chg (Chg from Control)", "setting": "Renal Hypertensive Rats; 2 Hr post-dose", "value": -7, "unit": "mmHg"}, {"measurement": "HR % Chg (Chg from Control)", "setting": "Renal Hypertensive Rats; 4 Hr post-dose", "value": 9, "unit": "%"}, {"measurement": "HR b/min. Chg (Chg from Control)", "setting": "Renal Hypertensive Rats; 4 Hr post-dose", "value": 25, "unit": "b/min."}, {"measurement": "SBP % Chg (Chg from Control)", "setting": "Renal Hypertensive Rats; 4 Hr post-dose", "value": -6, "unit": "%"}, {"measurement": "SBP mmHg Chg (Chg from Control)", "setting": "Renal Hypertensive Rats; 4 Hr post-dose", "value": -10, "unit": "mmHg"}, {"measurement": "HR % Chg (Chg from Control)", "setting": "Renal Hypertensive Rats; 8 Hr post-dose", "value": -2, "unit": "%"}, {"measurement": "HR b/min. Chg (Chg from Control)", "setting": "Renal Hypertensive Rats; 8 Hr post-dose", "value": -4, "unit": "b/min."}, {"measurement": "SBP % Chg (Chg from Control)", "setting": "Renal Hypertensive Rats; 8 Hr post-dose", "value": -20, "unit": "%"}, {"measurement": "SBP mmHg Chg (Chg from Control)", "setting": "Renal Hypertensive Rats; 8 Hr post-dose", "value": -35, "unit": "mmHg"}, {"measurement": "clinical sign noted previously in studies in rats", "setting": "CD rats", "value": "pink skin (peripheral vasodilation)"}]}]}
